Source: PubChem BioAssay AID2744 (NMMLSC, 2010)
Activity calls are given as the source filed them.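 The calls were made as follows: active = fitted half-maximal concentration for changing reporter fluorescence at or below a set limit; inactive = the rest.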

Target: Citrate synthase, peroxisomal (Saccharomyces cerevisiae (strain ATCC 204508 / S288c)) (UniProt P08679)
Assay: CIT2-GFP expression modulators in yeast, dose response, flow cytometry, MLPCN hits (AID 2744)
Details: S. cerevisiae CIT2-GFP strain, 3 h, at 33 µM (top of the series)

Sequence of Citrate synthase, peroxisomal (Saccharomyces cerevisiae (strain ATCC 204508 / S288c)) (P08679 whole entry, looked up): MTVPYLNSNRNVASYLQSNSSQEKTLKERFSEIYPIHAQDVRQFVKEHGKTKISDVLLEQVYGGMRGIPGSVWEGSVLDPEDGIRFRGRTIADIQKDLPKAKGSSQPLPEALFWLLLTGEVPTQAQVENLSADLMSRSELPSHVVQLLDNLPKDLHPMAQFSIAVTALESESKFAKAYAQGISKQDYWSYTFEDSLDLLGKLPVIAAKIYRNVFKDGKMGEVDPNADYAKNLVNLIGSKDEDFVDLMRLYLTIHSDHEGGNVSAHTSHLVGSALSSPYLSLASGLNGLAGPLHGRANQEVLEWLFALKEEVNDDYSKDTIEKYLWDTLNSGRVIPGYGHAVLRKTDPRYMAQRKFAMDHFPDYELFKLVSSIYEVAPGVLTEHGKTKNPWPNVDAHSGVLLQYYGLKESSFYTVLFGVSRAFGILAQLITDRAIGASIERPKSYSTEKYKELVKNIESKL

Structure (SMILES) | GFP fluorescence, higher = induction
Cc1cc(S(=O)(=O)ON2C(=O)c3ccccc3C2=O)ccc1F | inactive
CCOC(=O)Cn1cc(/C=C/[N+](=O)[O-])c2ccccc21 | inactive
Nc1c(C(=O)c2cccs2)sc2nsc(SCCN3CCCCC3)c12 | inactive
O=C1ON=C(c2ccccc2)/C1=C/c1ccc(-c2ccccc2[N+](=O)[O-])o1 | inactive
COc1ccccc1C(=O)NNC(=S)NC(=O)c1ccco1 | inactive
Cc1ccc(-c2nc(N)c3c(-c4ccc(C)cc4)nn(C(C)(C)C)c3n2)cc1 | inactive
COc1ccc(OC)c(S(=O)(=O)ON2C(=O)c3ccccc3C2=O)c1 | inactive
COc1ccccc1[C@]1(C)ON(c2ccccc2C(F)(F)F)C1=O | inactive
Cc1cc(C)c(C)c(S(=O)(=O)ON2C(=O)c3ccccc3C2=O)c1C | inactive
Nc1nc2ncc(CNc3ccc(C(=O)N[C@@H](CCC(=O)O)C(=O)O)cc3)nc2c(=O)[nH]1 | inactive
O=C1NC(=O)C(=Cc2ccc(-c3ccc(Cl)cc3)o2)C(=O)N1 | inactive
NC(=O)COc1ccc(C(=O)/C=C2/C(=O)Nc3ccccc32)cc1 | inactive
O=C(OCn1ncc(Br)c(Br)c1=O)c1c(F)cccc1F | inactive
COc1ccc(N2C(=O)CC(Sc3ncn[nH]3)C2=O)c(OC)c1 (configuration not stated) | inactive
CCOC(=O)CCS(=O)(=O)c1nc(-c2ccccc2)cc(C(F)(F)F)n1 | inactive
C#CCOCCOCCOCCNc1nc(N2CCN(C(=O)CCCCCCCCCCNC(=O)[C@H](CCCCN)n3cc(C)nn3)CC2)nc(N2CCN(C(=O)CCCCCCCCCCNC(=O)[C@H](CCCN=C(N)N)n3cc(C[C@@H](C)CC)nn3)CC2)n1 | inactive
CCCS(=O)(=O)c1nnnn1-c1cccc(OC)c1 | inactive
